Results from PMC4729491, “The Cellular Thioredoxin-1/Thioredoxin Reductase-1 Driven Oxidoreduction Represents a Chemotherapeutic Target for HIV-1 Entry Inhibition” (PLoS ONE, 2016).
Where “and” joins values, the source holds several entries; their conditions need not be identical. Equal entries are not always repeated.

Assays:
HIV-2(ROD) = assay: Inhibition of HIV-2(ROD)-induced giant cell formation in CEM cell cultures; assay type: cell-based; conditions: CEM cells
Protocol: (§1) To study the antiviral activity in transformed cells, CEM cells were suspended in fresh culture medium and infected with HIV-1(IIIB) or HIV-2(ROD) at 100 x CCID50 (cell culture infective dose 50%) per ml of cell suspension. Infected cell suspension (100 μl; 3 x 10^5 cells/ml) was transferred to a 96-well microplate, mixed with 100 μl of the appropriate dilutions of compounds, and further incubated at 37°C. After 4 days, giant cell formation was recorded microscopically and the number of giant cells was estimated microscopically as percentage of the number of giant cells present in the non-treated virus-infected cell cultures.

[1] = previously known structural properties ref 20-22; cited from earlier work
HIV-1(HE) = assay: Antiviral activity in PHA-stimulated PBMCs (p24 ELISA), HIV-1(HE); assay type: cell-based; conditions: PHA-stimulated PBMCs; mean ± SD; read-out: EC50 HIV-1 (HE)
Protocol: (§2) To test the antiviral activity in fresh, PHA-stimulated PBMCs, an experiment was performed as previously described. Briefly, the cells were preincubated with HIV-1(IIIB), HIV-1(BaL) or HIV-1(HE) for 1 h at 37°C, using a viral load of 1000 x CCID50 per ml. Then, cell suspensions containing virus and 2 x 10^5 PBMCs were seeded in a 96-well microtiter plate and a serial dilution of compound was added, in a total volume of 200 μl. After 4 days, the cells were passaged and fresh culture medium, containing IL-2 and compound, was added. Three days later, cellular supernatants were harvested and viral replication in the presence of the compounds was quantified using a p24 enzyme-linked immunosorbent assay (ELISA) (Perkin Elmer, Brussels, Belgium). The half maximal effective concentration (EC50) was defined as the compound concentration that is required to block viral replication by 50%.

HIV-1 = assay: Infectivity (TZM-bl) of virus particles produced by ACH-2 cells in presence of compound; assay type: cell-based; conditions: ACH-2 cultures exposed to compound 3 days; supernatant 1:100 titrated on TZM-bl
Protocol: To measure the infectivity of particles produced in the presence of the compounds, washed persistently HIV-1-infected ACH-2 cells (1 x 10^6 cells/ml) were cultured with 100 nM PMA in the presence of the indicated concentration of compounds. After 3 days, the p24 content of the clarified supernatant (see virus expression) was measured. The cell supernatant was then used for an infectivity test (see infectivity assay) without the further addition of any compound to the cultures. The final dilution of the ACH-2 supernatant in the infectivity test was 1:100. A control experiment was performed, in which virus particles produced without the addition of compound, were used for the infectivity test. Additionally, the same amount of compound that could have been carried over with the virus containing supernatant in the original experiment was added to the infectivity test (final concentration: 1/100 of the indicated amount in the viral growth culture).

[2] = test system: HuT-78/HIV-1 and Sup-T1 cells; assay: cells; assay type: cell-based; conditions: cocultures of HuT-78/HIV-1 and Sup-T1 cells, ~24 hours; read-out: IC50 inhibition of syncytia formation
Protocol: Persistently infected HuT-78/HIV-1 cells were thoroughly washed to eliminate free virions. Next, 1 x 10^5 HuT-78/HIV-1 cells were co-cultivated with 1 x 10^5 Sup-T1 cells in 96-well plates (200 μl/well) during 20 h at 37°C, in the presence or absence of a serial dilution of compound. Afterwards, the formation of syncytia was evaluated microscopically. The EC50 was defined as the compound concentration required to suppress syncytia formation by 50%.

TrxR1 = target: T1, TrxR1 (Homo sapiens, UniProt Q16881); assay: SPR binding to immobilized TrxR1; conditions: 10, 50 and 250 μM
T1 construct: purchased IMCO Corporation (Stockholm, Sweden) or Sino Biological Inc (Zoersel, Belgium)
T1 sequence (Q16881 1-499 isoform Q16881-5): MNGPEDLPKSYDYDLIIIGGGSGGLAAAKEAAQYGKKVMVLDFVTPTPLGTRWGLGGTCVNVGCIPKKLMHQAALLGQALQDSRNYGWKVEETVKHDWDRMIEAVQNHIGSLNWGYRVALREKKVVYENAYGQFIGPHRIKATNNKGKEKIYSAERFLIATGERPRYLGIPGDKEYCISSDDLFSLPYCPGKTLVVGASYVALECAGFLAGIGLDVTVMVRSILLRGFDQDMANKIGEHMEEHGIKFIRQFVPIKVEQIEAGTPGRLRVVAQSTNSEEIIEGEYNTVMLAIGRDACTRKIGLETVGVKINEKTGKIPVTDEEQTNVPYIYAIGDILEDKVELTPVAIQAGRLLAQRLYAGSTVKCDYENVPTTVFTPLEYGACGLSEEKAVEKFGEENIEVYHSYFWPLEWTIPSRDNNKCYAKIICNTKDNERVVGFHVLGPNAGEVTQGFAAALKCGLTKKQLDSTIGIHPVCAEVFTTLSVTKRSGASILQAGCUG
Protocol: SPR analysis was performed to evaluate binding of TE-2 to immobilized recombinant TrxR1, PDI, gp120, gp41 and sCD4. Therefore, these ligands were immobilized on a CM5 sensor chip (GE Healthcare, Uppsala, Sweden) using standard amine coupling in the presence of 10 mM sodium acetate, pH 5. A high ligand-density chip was created, with ligand densities of 6759, 5004, 4119, 2900 and 5569 RU, respectively. A reference flow cell was used to control for non-specific binding and refractive index changes. All interactions were studied at 25°C on a Biacore T200 instrument (GE Healthcare, Uppsala, Sweden) in HBS-P (10 mM HEPES, 150 mM NaCl and 0.05% surfactant P20; pH 7.4) supplemented with 10 mM CaCl2 and 5% DMSO. TE-2 was tested at the concentrations 10, 50 and 250 μM. Samples were injected during 2 minutes at a flow rate of 30 μl/min, followed by a dissociation phase of 2 minutes. Each injection was followed by a regeneration step with 50 mM NaOH (injected during 10 seconds at a flow rate of 100 μl/min).

HIV-1(IIIB) [3] = assay: Antiviral activity in PHA-stimulated PBMCs (p24 ELISA), HIV-1(IIIB); assay type: cell-based; conditions: PHA-stimulated PBMCs; mean ± SD; read-out: EC50 HIV-1 (IIIB)
Protocol: as §2

HIV-1(IIIB) [4] = assay: microbe, parasite or virus in culture; assay type: cell-based; conditions: CEM cells
Protocol: as §1

PHA-stimulated PBMCs = assay: Toxicity in PHA-stimulated PBMCs (trypan blue cell counting); assay type: cell-based, human; conditions: proliferation of seven-day drug-exposed PHA-stimulated PBMCs; mean ± SD; read-out: IC50 PBMC
Protocol: A similar experiment was performed to study the toxicity of the compounds in fresh, PHA-stimulated, PBMCs. Mock-infected PBMCs (2 x 10^5 cells) were exposed to a serial dilution of compound, in a total volume of 200 μl. Cells were passaged after 4 days. Cell survival and proliferation was assessed at day 7 using trypan blue-based cell counting with the Countess Automated Cell Counter (Invitrogen, Ghent, Belgium). The IC50 was defined as the concentration of the compound that inhibited cell proliferation by 50%.

With “6-(butyltelluro)-6-deoxy-β-cyclodextrin [TE-2]” as the substance, how does the “Ratio IC50/EC50 HIV-2 (CEM)” value (HIV-2(ROD)) read?
Its value is 167.

What about the EC50 (HIV-2(ROD); concentration required to protect against cytopathogenicity of HIV by 50%, mean ± SD, read-out: EC50 HIV-2 (ROD)) of the same substance?
Its EC50 is 1.5 ± 0.52 µM.

What about the Hydrophobicity [1] of the same substance?
The Hydrophobicity was “Hydrophilic”.

What about the EC50 (HIV-1(HE)) of the same substance?
The EC50 was 6.6 ± 4.2 µM.

What about the “infectivity of virus particles produced in presence of compound (normalized for equal p24)” value (HIV-1) of the same substance?
Its value is “substantially less infectious virus particles”.

What about the IC50 [2] of the same substance?
The IC50 was greater than 250 µM.

What about the “SPR binding to TrxR1” value (TrxR1) of the same substance?
The value was “able to specifically bind TrxR1”.

And the EC50 (HIV-1(IIIB) [3])?
Its EC50 is 15 ± 7 µM.

And the “Ratio IC50/EC50 HIV-1 (CEM)” value (HIV-1(IIIB) [4])?
The value was 227.

And the EC50 (HIV-1(IIIB) [4]; concentration required to protect against cytopathogenicity of HIV by 50%, mean ± SD, read-out: EC50 HIV-1 (IIIB))?
The EC50 was 1.1 ± 0.25 µM.

And the “antiviral selectivity SI = IC50/EC50” value (HIV-1(IIIB) [4]; over HIV-1 and HIV-2)?
Its value is 167–227 and > 100.

And the IC50 (PHA-stimulated PBMCs)?
The IC50 was 54 ± 16 µM.
